Read-outs that look alike come from different tables or passages of the source.
Molecular target: T1, IRAK4 (Homo sapiens, UniProt Q9NWZ3)
T1 construct: Degradation of IRAK4 in OCI-LY10 was quantitatively measured using Meso Scale Discovery technology; endogenous in cells; host or cells: OCI-LY10
T1 sequence (Q9NWZ3 1-460): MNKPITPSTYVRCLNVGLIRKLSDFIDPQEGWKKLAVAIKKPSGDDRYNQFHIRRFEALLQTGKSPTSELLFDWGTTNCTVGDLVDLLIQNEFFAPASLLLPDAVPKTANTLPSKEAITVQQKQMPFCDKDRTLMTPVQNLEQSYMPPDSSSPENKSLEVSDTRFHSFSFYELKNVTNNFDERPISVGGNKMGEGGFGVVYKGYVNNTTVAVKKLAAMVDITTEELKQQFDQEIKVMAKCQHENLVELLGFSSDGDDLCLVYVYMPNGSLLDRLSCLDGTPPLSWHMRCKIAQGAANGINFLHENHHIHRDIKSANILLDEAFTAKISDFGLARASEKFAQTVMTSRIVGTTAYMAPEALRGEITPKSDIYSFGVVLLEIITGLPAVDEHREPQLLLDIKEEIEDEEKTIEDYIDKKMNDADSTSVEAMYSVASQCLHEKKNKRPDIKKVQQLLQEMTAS
Test: IRAK4 MSD Degradation in OCI-LY10
Assay type: cell-based
Details: OCI-LY10 cells, MSD
How it was run: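 OCI-LY10 cells exposed to 8-point 1:3 compound series (top 1 to 10 μM) for 4 to 24 h at 37 °C, 5% CO2. Lysate IRAK4 quantified by MSD sandwich immunoassay. DC50 from three-parameter logistic fit, binned A (<0.01 μM) to D (>0.2 μM or not tested).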

[1] = 4 hrs incubation, read-out: IRAK4 degradation in OCI-LY10 at 4 hrs: DC50
[2] = 24 hrs incubation, read-out: IRAK4 degradation in OCI-LY10 at 24 hrs: DC50

Row | SMILES | DC50 [1] [nM] | DC50 [2] [nM]
1 | Cn1c(=O)n(C2CCC(=O)NC2=O)c2cccc(C#CCN3CCN(C[C@H]4CC[C@H](n5cc(NC(=O)c6cnn7ccc(N8CCOC(F)(F)C8)nc67)c(C(F)F)n5)CC4)CC3)c21 (some centres unmarked) [I-324] | > 200 | > 200
2 | Cn1c(=O)n(C2CCC(=O)NC2=O)c2cccc(C#CCOC3CCN(C[C@H]4CC[C@H](n5cc(NC(=O)c6cnn7ccc(N8CC9(COC9)C8)nc67)c(C(F)F)n5)CC4)CC3)c21 (some centres unmarked) [I-325] | > 200 | > 200
3 | Cn1c(=O)n(C2CCC(=O)NC2=O)c2cccc(C#CCOC3CCN(C[C@H]4CC[C@H](n5cc(NC(=O)c6cnn7ccc(N8CC9(CCOC9)C8)nc67)c(C(F)F)n5)CC4)CC3)c21 (some centres unmarked) [I-327] | > 200 | < 10
4 | Cn1c(=O)n(C2CCC(=O)NC2=O)c2cccc(C#CCOC3CCN(C[C@H]4CC[C@H](n5cc(NC(=O)c6cnn7ccc(N8CCC9(CCOCC9)C8)nc67)c(C(F)F)n5)CC4)CC3)c21 (some centres unmarked) [I-329] | 10 to 100 | > 200
5 | Cn1c(=O)n(C2CCC(=O)NC2=O)c2cccc(C#CCOC3CCN(C[C@H]4CC[C@H](n5cc(NC(=O)c6cnn7ccc(N8CCC9(COC9)C8)nc67)c(C(F)F)n5)CC4)CC3)c21 (some centres unmarked) [I-330] | > 200 | > 200
6 | Cn1c(=O)n(C2CCC(=O)NC2=O)c2cccc(C#CCN3CCN(C[C@H]4CC[C@H](n5cc(NC(=O)c6cccc7ccc(N8CCC8)nc67)c(C(F)F)n5)CC4)CC3)c21 (some centres unmarked) [I-335] | > 200 | > 200
7 | Cn1c(=O)n(C2CCC(=O)NC2=O)c2cccc(C#CCN3CCN(C[C@H]4CC[C@H](n5cc(NC(=O)c6cnn7ccc(N8C9CCC8COC9)nc67)c(C(F)F)n5)CC4)CC3)c21 (some centres unmarked) [I-339] | < 10 | > 200
8 | Cn1c(=O)n(C2CCC(=O)NC2=O)c2cccc(C#CCN3CCN([C@H]4CC[C@H](n5cc(NC(=O)c6cnn7ccc(N8C[C@H]9C[C@@H]8CO9)nc67)c(C(F)F)n5)CC4)CC3)c21 (some centres unmarked) [I-340] | > 200 | > 200
9 | Cn1c(=O)n(C2CCC(=O)NC2=O)c2cccc(C#CCN3CC4CCC(C3)N4C[C@H]3CC[C@H](n4cc(NC(=O)c5cnn6ccc(N7C[C@H]8C[C@@H]7CO8)nc56)c(C(F)F)n4)CC3)c21 (some centres unmarked) [I-342] | < 10 | > 200
10 | Cn1c(=O)n(C2CCC(=O)NC2=O)c2cccc(C#CCN3C4CCC3CN(C[C@H]3CC[C@H](n5cc(NC(=O)c6cnn7ccc(N8C[C@H]9C[C@@H]8CO9)nc67)c(C(F)F)n5)CC3)C4)c21 (some centres unmarked) [I-343] | > 200 | < 10
11 | Cn1c(=O)n(C2CCC(=O)NC2=O)c2cccc(C#CCN3CC4CC(C3)N4C[C@H]3CC[C@H](n4cc(NC(=O)c5cnn6ccc(N7C[C@H]8C[C@@H]7CO8)nc56)c(C(F)F)n4)CC3)c21 (some centres unmarked) [I-344] | > 200 | > 200
12 | Cn1c(=O)n(C2CCC(=O)NC2=O)c2cccc(C#CCN3C4CC3CN(C[C@H]3CC[C@H](n5cc(NC(=O)c6cnn7ccc(N8C[C@H]9C[C@@H]8CO9)nc67)c(C(F)F)n5)CC3)C4)c21 (some centres unmarked) [I-345] | 10 to 100 | > 200
13 | Cn1c(=O)n(C2CCC(=O)NC2=O)c2cccc(C#CCN3CC4COCC(C3)N4C[C@H]3CC[C@H](n4cc(NC(=O)c5cnn6ccc(N7C[C@H]8C[C@@H]7CO8)nc56)c(C(F)F)n4)CC3)c21 (some centres unmarked) [I-348] | 100 to 200 | > 200
14 | Cn1c(=O)n(C2CCC(=O)NC2=O)c2cccc(C#CCN3CCN(C[C@H]4CC[C@H](n5cc(NC(=O)c6cnn7ccc(N8CC(C)(C)OC(C)(C)C8)nc67)c(C(F)F)n5)CC4)CC3)c21 (some centres unmarked) [I-352] | 10 to 100 | > 200
15 | Cn1c(=O)n(C2CCC(=O)NC2=O)c2cccc(C#CCN3CCN(C[C@H]4CC[C@H](n5cc(NC(=O)c6cnn7ccc([C@H]8CCOC8)nc67)c(C(F)F)n5)CC4)CC3)c21 (some centres unmarked) [I-354] | > 200 | > 200
16 | CN(C[C@H]1CC[C@H](n2cc(NC(=O)c3cnn4ccc(N5CCOC6(CC6)C5)nc34)c(C(F)F)n2)CC1)C1CCN(c2cccc3c2n(C)c(=O)n3C2CCC(=O)NC2=O)CC1 (some centres unmarked) [I-356] | > 200 | < 10
17 | CC1CN(c2ccn3ncc(C(=O)Nc4cn([C@H]5CC[C@H](CN(C)C6CCN(c7cccc8c7n(C)c(=O)n8C7CCC(=O)NC7=O)CC6)CC5)nc4C(F)F)c3n2)CCO1 (some centres unmarked) [I-358] | > 200 | > 200
18 | CC1CN(c2ccn3ncc(C(=O)Nc4cn([C@H]5CC[C@H](CN(C)C6CCN(c7cccc8c7n(C)c(=O)n8C7CCC(=O)NC7=O)CC6)CC5)nc4C(F)F)c3n2)CC(C)O1 (some centres unmarked) [I-359] | > 200 | > 200
19 | Cn1c(=O)n(C2CCC(=O)NC2=O)c2cccc([C@H]3CC[C@H](CN4CCN(C[C@H]5CC[C@H](n6cc(NC(=O)c7cnn8ccc(N9C[C@H]%10C[C@@H]9CO%10)nc78)c(C(F)F)n6)CC5)CC4)CC3)c21 (some centres unmarked) [I-362] | < 10 | > 200
20 | Cn1c(=O)n(C2CCC(=O)NC2=O)c2cccc(N3CC[C@@H](CN4CCN(C[C@H]5CC[C@H](n6cc(NC(=O)c7cnn8ccc(N9C[C@H]%10C[C@@H]9CO%10)nc78)c(C(F)F)n6)CC5)CC4)C3)c21 (some centres unmarked) [I-363] | > 200 | > 200

Second part, the molecule after the results:

Row | DC50 [1] [nM] | DC50 [2] [nM] | SMILES
21 | 10 to 100 | > 200 | Cn1c(=O)n(C2CCC(=O)NC2=O)c2cccc(C#CCOC3CCN(C[C@H]4CC[C@H](n5cc(NC(=O)c6cnn7ccc(N8CC9(CCOCC9)C8)nc67)c(C(F)F)n5)CC4)CC3)c21 (some centres unmarked) [I-326]
22 | 10 to 100 | > 200 | Cn1c(=O)n(C2CCC(=O)NC2=O)c2cccc(C#CCOC3CCN(C[C@H]4CC[C@H](n5cc(NC(=O)c6cnn7ccc(N8CC9(CCCOC9)C8)nc67)c(C(F)F)n5)CC4)CC3)c21 (some centres unmarked) [I-328]
23 | 10 to 100 | > 200 | Cn1c(=O)n(C2CCC(=O)NC2=O)c2cccc(C#CCOC3CCN(C[C@H]4CC[C@H](n5cc(NC(=O)c6cnn7ccc(N8CCC9(CCOC9)C8)nc67)c(C(F)F)n5)CC4)CC3)c21 (some centres unmarked) [I-331]
24 | < 10 | > 200 | Cn1c(=O)n(C2CCC(=O)NC2=O)c2cccc(C#CCOC3CCN(C[C@H]4CC[C@H](n5cc(NC(=O)c6cnn7ccc(N8CC9COCC9C8)nc67)c(C(F)F)n5)CC4)CC3)c21 (some centres unmarked) [I-332]
25 | > 200 | > 200 | Cn1c(=O)n(C2CCC(=O)NC2=O)c2cccc(C#CCOC3CCN(C[C@H]4CC[C@H](n5cc(NC(=O)c6cnn7ccc(N8CCOC(C(F)(F)F)C8)nc67)c(C(F)F)n5)CC4)CC3)c21 (some centres unmarked) [I-333]
26 | > 200 | > 200 | Cn1c(=O)n(C2CCC(=O)NC2=O)c2cccc(C#CCOC3CCN(C[C@H]4CC[C@H](n5cc(NC(=O)c6cnn7ccc(N8CCOC(F)(F)C8)nc67)c(C(F)F)n5)CC4)CC3)c21 (some centres unmarked) [I-334]
27 | > 200 | > 200 | Cn1c(=O)n(C2CCC(=O)NC2=O)c2cccc(C#CCOC3CCN(C[C@H]4CC[C@H](n5cc(NC(=O)c6cccc7ccc(N8CCC8)nc67)c(C(F)F)n5)CC4)CC3)c21 (some centres unmarked) [I-336]
28 | > 200 | < 10 | Cn1c(=O)n(C2CCC(=O)NC2=O)c2cccc(C#CCN3CCN(C[C@H]4CC[C@H](n5cc(NC(=O)c6cnn7ccc(N8CC9CC(C8)O9)nc67)c(C(F)F)n5)CC4)CC3)c21 (some centres unmarked) [I-337]
29 | > 200 | < 10 | Cn1c(=O)n(C2CCC(=O)NC2=O)c2cccc(C#CCN3CCN(C[C@H]4CC[C@H](n5cc(NC(=O)c6cnn7ccc(N8C9COCC8C9)nc67)c(C(F)F)n5)CC4)CC3)c21 (some centres unmarked) [I-338]
30 | > 200 | > 200 | Cn1c(=O)n(C2CCC(=O)NC2=O)c2cccc(C#COCC3CCN([C@H]4CC[C@H](n5cc(NC(=O)c6cnn7ccc(N8C[C@H]9C[C@@H]8CO9)nc67)c(C(F)F)n5)CC4)CC3)c21 (some centres unmarked) [I-341]
31 | 10 to 100 | > 200 | Cn1c(=O)n(C2CCC(=O)NC2=O)c2cccc(C#CCN3C4COCC3CN(C[C@H]3CC[C@H](n5cc(NC(=O)c6cnn7ccc(N8C[C@H]9C[C@@H]8CO9)nc67)c(C(F)F)n5)CC3)C4)c21 (some centres unmarked) [I-349]
32 | > 200 | > 200 | Cn1c(=O)n(C2CCC(=O)NC2=O)c2cccc(C#CCN3CCN(C[C@H]4CC[C@H](n5cc(NC(=O)c6cnn7ccc(C8COC8)nc67)c(C(F)F)n5)CC4)CC3)c21 (some centres unmarked) [I-351]
33 | > 200 | > 200 | Cn1c(=O)n(C2CCC(=O)NC2=O)c2cccc(C#CCN3CCN(C[C@H]4CC[C@H](n5cc(NC(=O)c6cnn7ccc([C@@H]8CCOC8)nc67)c(C(F)F)n5)CC4)CC3)c21 (some centres unmarked) [I-353]
34 | 10 to 100 | > 200 | CN(C[C@H]1CC[C@H](n2cc(NC(=O)c3cnn4ccc(N5CC(C)(C)OC(C)(C)C5)nc34)c(C(F)F)n2)CC1)C1CCN(c2cccc3c2n(C)c(=O)n3C2CCC(=O)NC2=O)CC1 (some centres unmarked) [I-355]
35 | > 200 | < 10 | CN(C[C@H]1CC[C@H](n2cc(NC(=O)c3cnn4ccc(N5CCOC6(CCC6)C5)nc34)c(C(F)F)n2)CC1)C1CCN(c2cccc3c2n(C)c(=O)n3C2CCC(=O)NC2=O)CC1 (some centres unmarked) [I-357]
36 | > 200 | < 10 | CN(C[C@H]1CC[C@H](n2cc(NC(=O)c3cnn4ccc(N5C[C@H]6CC[C@@H](C5)O6)nc34)c(C(F)F)n2)CC1)C1CCN(c2cccc3c2n(C)c(=O)n3C2CCC(=O)NC2=O)CC1 (some centres unmarked) [I-360]
37 | > 200 | > 200 | CN(C[C@H]1CC[C@H](n2cc(NC(=O)c3cnn4ccc(C5COC5)nc34)c(C(F)F)n2)CC1)C1CCN(c2cccc3c2n(C)c(=O)n3C2CCC(=O)NC2=O)CC1 (some centres unmarked) [I-361]
